How the values were obtained:
Assay in all cases: MIC, sole activity (no second agent)
Type in all cases: cell-based
Details in all cases: Table 6A; no second agent; different supplier of Cation-adjusted MHB
Acinetobacter baumannii = test system: Acinetobacter baumannii
How it was run: (§1)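 Up to four strains per species were tested in cation-adjusted Mueller-Hinton broth, with inoculum made by direct colony suspension from 18-24 hour Mueller-Hinton agar plates, adjusted to 0.5 McFarland. Duplicates differing by under 2-fold gave the lower value; greater spread voided the run. Values are relative to Polymyxin B.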

Pseudomonas aeruginosa = test system: Pseudomonas aeruginosa
How it was run: as §1

Klebsiella pneumoniae = test system: Klebsiella pneumoniae
How it was run: as §1

Escherichia coli = test system: Escherichia coli
How it was run: as §1

Substance | MIC A. baumannii ATCC BAA-747 (Acinetobacter baumannii) [micrograms/mL] | MIC A. baumannii NCTC 13424 (Acinetobacter baumannii) [micrograms/mL] | MIC P. aeruginosa ATCC 27853 (Pseudomonas aeruginosa) [micrograms/mL] | MIC P. aeruginosa CCUG 59347 (Pseudomonas aeruginosa) [micrograms/mL] | MIC K. pneumoniae ATCC 4352 (Klebsiella pneumoniae) [micrograms/mL] | MIC K. pneumoniae ATCC BAA-2146 (Klebsiella pneumoniae) [micrograms/mL] | MIC E. coli ATCC25922 (Escherichia coli) [micrograms/mL] | MIC E. coli NCTC 13441 (Escherichia coli) [micrograms/mL]
(R)-Piperidine-3-carbonyl polymyxin B nonapeptide [Example A24] | >8 | >8 | 1 | 2 | 8 | >8 | >8 | >8
(S)-1-(2-methylpropyl)- piperidine-3-carbonyl polymyxin B nonapeptide [Example A48] | 4 | 2 | 1 | 4 | 0.5 | 2 | 1 | 1
(S)-1-(3-methylbutanoyl) piperazine-2-carbonyl polymyxin B nonapeptide [Example A47] | 8 | 4 | 2 | 8 | >8 | 8 | >8 | 8
Cis-4-Octyl piperidine-2- carbonyl polymyxin B nonapeptide. Isomer 1 [Example A43] | >8 | >8 | 4 | 8 | >8 |  | 8 | >8
Cis-4-Octyl piperidine-2- carbonyl polymyxin B nonapeptide. Isomer 2 [Example A44] | 2 | 4 | 1 | 2 | 2 |  | 2 | 2
D-Leu-polymyxin B nonapeptide [Example A42] | 4 | 4 | 0.5 | 2 | 2 | 1 | 2 | 1
D-Phe polymyxin B nonapeptide [Example A35] | 8 | 8 | 0.25 | 1 | 2 | 2 | 1 | 2
D-Pro polymyxin B nonapeptide [Example A36] | 8 | 8 | 1 | 4 | 1 | 8 | 2 | 2
L-Pro polymyxin B nonapeptide [Example A37] | >8 | >8 | 2 | >8 | >8 | >8 | >8 | >8
Piperidine-1-ylethanoyl polymyxin B nonapeptide [Example A2] | >8 | >8 | 2 | 4 | 8 |  | 4 | >8
Piperidine-2-carbonyl polymyxin B nonapeptide. Isomer 1 [Example A25] | >8 | 8 | 2 | 4 | 8 | >8 | >8 | >8
Piperidine-2-carbonyl polymyxin B nonapeptide. Isomer 2 [Example A26] | 2 | 1 | 1 | 2 | 0.5 | 1 | 2 | 2
[2-(RS)-(2-Hydroxy-2- cyclohexyl)ethanoyl]-L-Thr- L-Dap-polymyxin B heptapeptide [Example A4] | >8 | >8 | 2 | 2 | 2 |  | 1 | 4
[3(R,S)-3-Amino-3- cyclohexanepropanoyl]-Gly- polymyxin B nonapeptide [Example A7] | 4 | 8 | 1 | >8 | >8 |  | >8 | >8
[3(R,S)-3-Amino-3- cyclohexanepropanoyl]-L- Arg- polymyxin B nonapeptide [Example A23] | 2 | 4 | 8 | >8 | >8 | >8 | >8 | >8
[3(R,S)-3-Amino-3- cyclohexanepropanoyl]-L- Dab-L-Thr-L-Dap polymyxin B heptapeptide [Example A10] | 2 | 2 | 0.25 | 0.25 | 0.5 |  | 1 | 1
[3(R,S)-3-Amino-3- cyclohexanepropanoyl]-L- His- polymyxin B nonapeptide [Example A19] | 4 | 4 | 1 | 2 | 8 | 8 | 8 | 4

From patent US10407467B2, “Polymyxin derivatives and their use in combination therapy together with different antibiotics” (priority 2013, dated 2019)
